The assay deals with T1, GlyT1 (Homo sapiens, UniProt P48067).
T1 construct: Human placental choriocarcinoma cells endogenously expressing GlyT1; endogenous in cells; host or cells: JAR cells (human placental choriocarcinoma)
T1 sequence (P48067 1-706): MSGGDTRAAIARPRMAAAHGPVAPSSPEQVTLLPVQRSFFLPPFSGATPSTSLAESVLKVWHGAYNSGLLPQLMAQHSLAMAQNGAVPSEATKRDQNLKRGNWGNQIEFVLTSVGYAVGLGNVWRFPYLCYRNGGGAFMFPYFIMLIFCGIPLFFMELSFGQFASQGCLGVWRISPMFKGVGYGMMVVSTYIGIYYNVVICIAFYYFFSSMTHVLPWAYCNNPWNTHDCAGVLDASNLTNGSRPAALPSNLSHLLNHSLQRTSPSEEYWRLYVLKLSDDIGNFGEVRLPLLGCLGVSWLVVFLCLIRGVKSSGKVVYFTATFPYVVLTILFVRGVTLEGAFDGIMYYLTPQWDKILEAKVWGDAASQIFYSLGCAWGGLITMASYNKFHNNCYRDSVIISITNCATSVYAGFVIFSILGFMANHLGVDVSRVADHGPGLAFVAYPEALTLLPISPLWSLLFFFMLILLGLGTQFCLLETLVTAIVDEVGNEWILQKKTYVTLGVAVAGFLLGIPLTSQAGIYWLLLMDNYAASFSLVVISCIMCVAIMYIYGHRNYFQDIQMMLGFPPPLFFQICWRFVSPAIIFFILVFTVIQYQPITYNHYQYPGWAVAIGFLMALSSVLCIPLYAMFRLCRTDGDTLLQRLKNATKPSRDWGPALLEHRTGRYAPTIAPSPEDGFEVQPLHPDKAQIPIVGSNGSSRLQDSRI
The assay can be described thus: [14C]-glycine uptake inhibition in JAR cells (human placental choriocarcinoma cells endogenously expressing GlyT1). The format is cell-based. The settings on record: inhibition of specific [14C]-glycine uptake, read-out: Potency. The procedure:
Human placental choriocarcinoma cells endogenously expressing GlyT1 can be cultured using standard conditions. Cells can then be grown at 37° C. in a humidified atmosphere 40-48 hours before the assay. Culture medium can be removed from the culture plate, and cells can be incubated with an amount of TB1A buffer with or without the compounds of the present invention for a sufficient period of time. Then an amount of [^14C]-glycine diluted with TB1A can be added to each well. After incubation the microplates can be sealed and counted. Non-specific uptake of [^14C]-glycine can be determined in the presence of unlabeled glycine. To determine potencies, a range of concentrations of the compounds of the present invention can be added to the cells, followed by the fixed concentration of [^14C]-glycine. The concentration of the present compound that inhibited half of the specific uptake of [^14C]glycine (IC50 value) can be determined from the assay data by non-linear curve fitting.

Read-outs that look alike come from different tables or passages of the source. Some results are limits rather than exact numbers.

As to `CCCS(=O)(=O)N1CCC(C(NC(=O)c2ccc(Cl)cc2Cl)c2ccccc2)CC1` (single isomer, unassigned) [Compound 3a-2], the IC50 (values in nM) amounted to 609 nM. `Cn1cnc(S(=O)(=O)N2CCC(C(NC(=O)c3c(F)cccc3F)c3ccccn3)CC2)c1` (centres unmarked) [Compound 8c]: the IC50 (values given in μM) is more than 10000 nM.

As to `CCCS(=O)(=O)N1CCC(C(NC(=O)c2ccc(Cl)cc2Cl)c2ccccc2)CC1` (single isomer, unassigned) [Compound 3a-1], the IC50 (values given in μM) is more than 10000 nM. On the same count and under the same terms, to `Cn1cc(S(=O)(=O)N2CCC(C(NC(=O)c3ccc(Cl)cc3Cl)c3ccccc3)CC2)cn1` (centres unmarked) [Compound 3c] belongs 2400 nM; to `Cn1cnc(S(=O)(=O)N2CCC(C(NC(=O)c3ccccc3C(F)(F)F)c3ccccn3)CC2)c1` (centres unmarked) [Compound 8b], 1600 nM. As to `Cn1cnc(S(=O)(=O)N2CCC(C(NC(=O)c3ccc(Cl)cc3)c3ccccn3)CC2)c1` (centres unmarked) [Compound 8d], the IC50 (values in nM) came to 718 nM. On the same count and under the same terms, next, `Cn1cnc(S(=O)(=O)N2CCC(C(NC(=O)c3ccc(Cl)cc3Cl)c3ccccn3)CC2)c1` (racemic) [Compound 8a]: 46 nM. On to `Cn1cnc(S(=O)(=O)N2CCC(C(NC(=O)c3ccc(Cl)cc3Cl)c3ccccn3)CC2)c1` (single isomer, unassigned) [Compound 8a-2], for which, where the note is “values given in μM”, the IC50 amounted to 1600 nM. With `Cn1cnc(S(=O)(=O)N2CCC(CNC(=O)c3ccc(Cl)cc3Cl)CC2)c1` [Compound 9a], the IC50 (values in nM) was 174 nM. Same read-out and setting: next, `Cn1cnc(S(=O)(=O)N2CCC(C(NC(=O)c3ccc(Cl)cc3Cl)c3ccccn3)CC2)c1` (single isomer, unassigned) [Compound 8a-1]: 90 nM. Turning to `CCCS(=O)(=O)N1CCC(C(NC(=O)c2ccc(Cl)cc2Cl)c2ccccc2)CC1` (racemic) [Compound 3a], the IC50 (values given in μM) is 1500 nM. On the same count and under the same terms, to `Cn1cnc(S(=O)(=O)N2CCC(C(NC(=O)c3ccccc3Cl)c3ccccc3)CC2)c1` (centres unmarked) [Compound 5a] belongs more than 10000 nM.

Consider `Cn1cnc(S(=O)(=O)N2CCC(C(NC(=O)c3ccc(Cl)cc3Cl)c3ccccc3)CC2)c1` (racemic) [Compound 3b], for which, under “values in nM”, the IC50 worked out at 201 nM. `CC(NC(=O)c1ccc(Cl)cc1Cl)C1CCN(S(=O)(=O)c2cn(C)cn2)CC1` (centres unmarked) [Compound 9b]: under “values in nM”, the IC50 came out at 530 nM. For `Cn1cnc(S(=O)(=O)N2CCC(C(NC(=O)c3ccc(F)cc3F)c3ccccn3)CC2)c1` (centres unmarked) [Compound 8e], the IC50 (values in nM) turned out to be 853 nM.

On to `Cn1cnc(S(=O)(=O)N2CCC(C(NC(=O)c3ccc(Cl)cc3Cl)c3ccccc3)CC2)c1` (single isomer, unassigned) [Compound 3b-1], for which the IC50 (values given in μM) was more than 10000 nM.

For the compound `Cn1cnc(S(=O)(=O)N2CCC(C(NC(=O)c3ccc(Cl)cc3Cl)c3ccccc3)CC2)c1` (single isomer, unassigned) [Compound 3b-2], the IC50 (values in nM) was 178 nM.

These data come from patent US8436019B2, “Sulfonyl-piperidin-4-yl methylamine amide analogs as GlyT1 inhibitors, methods for making same, and use of same in treating psychiatric disorders” (Vanderbilt University, priority 2009, dated 2013).
